This note sets out measurements from patent publication US20220280516A1, “PEGYLATED HEPARIN NANOMICELLE LOADED WITH CARBOXYLIC ACID ANTI-TUMOR DRUG AND PREPARATION METHOD THEREOF” (priority 2020, published 2022).

The test concerns 5T33 multiple myeloma cells. Description: In vivo experiment of multiple myeloma. Particulars: 5T33 myeloma mice, subcutaneous. The method, then: Thirty 6-week-old mice are divided into three groups, which are administrated with free bendamustine (Group I), PEG-Py-HP-bendamustine (Group II) and PEG-Mal-HP-bendamustine (Group III) respectively. Male and female animals in each group are halved, and there is no statistically significant difference in body weight among animals in each group. The dosage of free bendamustine group is 0.1 ml/kg body weight/day, and that of PEG-Py-HP-bendamustine group and PEG-Mal-HP-bendamustine group is 20 mg/kg (body weight/day).
One week after injection of 1,000,000 5T33 multiple myeloma cells into the tail veins of mice, drugs are administered subcutaneously according to the above scheme, for three times a week. During the administration period, the animals are weighed every day, and the dosage on that day is determined according to the weight, and the animals are continuously administered until the death of the mice. The venous blood of mice is collected and stored every week, and the time of death of mice is recorded.

The structures appear in SMILES notation.

Regarding `Cn1c(CCCC(=O)O)nc2cc(N(CCCl)CCCl)ccc21` [free bendamustine, Bendamustine], where the note is “three times a week until death”, the “Average survival days of mice after drug injection” value is 36 days. Also, the “Average tumor load in serum of mice after drug injection” value is, setting by setting: (1 day) 132.2 µg/mL; (8 days) 201.5 µg/mL; (15 days) 321.2 µg/mL; (22 days) 608.4 µg/mL; (29 days) 873.3 µg/mL; (36 days) 946.8 µg/mL.
